Results on ten compounds are retold here after patent publication US6667335B2, “Imidazole derivatives” (Hoffmann-La Roche Inc., priority 2001, dated 2003).

The term melting point denotes the temperature of the solid-liquid transition. In general, IC50 refers to the concentration needed to halve the response being measured.

SMILES strings stand for the structures.

Data set [1] addresses T1, NMDA-receptor subtype 2B (Rattus norvegicus, UniProt P35439+Q00960).
T1 construct: Membranes were prepared by homogenization of the whole brain minus cerebellum and medulla oblongata; from tissue; host or cells: rat whole brain minus cerebellum and medulla oblongata, membrane preparation
The data set is described as follows: 3H-Ro 25-6981 binding (displacement) on rat brain membranes. The conditions noted are these: displacement of 5 nM 3H-Ro 25-6981, rat whole brain membranes (minus cerebellum and medulla oblongata), 2 hours at 4° C.

T1 sequence (Q00960 27-1482, other chains not shown): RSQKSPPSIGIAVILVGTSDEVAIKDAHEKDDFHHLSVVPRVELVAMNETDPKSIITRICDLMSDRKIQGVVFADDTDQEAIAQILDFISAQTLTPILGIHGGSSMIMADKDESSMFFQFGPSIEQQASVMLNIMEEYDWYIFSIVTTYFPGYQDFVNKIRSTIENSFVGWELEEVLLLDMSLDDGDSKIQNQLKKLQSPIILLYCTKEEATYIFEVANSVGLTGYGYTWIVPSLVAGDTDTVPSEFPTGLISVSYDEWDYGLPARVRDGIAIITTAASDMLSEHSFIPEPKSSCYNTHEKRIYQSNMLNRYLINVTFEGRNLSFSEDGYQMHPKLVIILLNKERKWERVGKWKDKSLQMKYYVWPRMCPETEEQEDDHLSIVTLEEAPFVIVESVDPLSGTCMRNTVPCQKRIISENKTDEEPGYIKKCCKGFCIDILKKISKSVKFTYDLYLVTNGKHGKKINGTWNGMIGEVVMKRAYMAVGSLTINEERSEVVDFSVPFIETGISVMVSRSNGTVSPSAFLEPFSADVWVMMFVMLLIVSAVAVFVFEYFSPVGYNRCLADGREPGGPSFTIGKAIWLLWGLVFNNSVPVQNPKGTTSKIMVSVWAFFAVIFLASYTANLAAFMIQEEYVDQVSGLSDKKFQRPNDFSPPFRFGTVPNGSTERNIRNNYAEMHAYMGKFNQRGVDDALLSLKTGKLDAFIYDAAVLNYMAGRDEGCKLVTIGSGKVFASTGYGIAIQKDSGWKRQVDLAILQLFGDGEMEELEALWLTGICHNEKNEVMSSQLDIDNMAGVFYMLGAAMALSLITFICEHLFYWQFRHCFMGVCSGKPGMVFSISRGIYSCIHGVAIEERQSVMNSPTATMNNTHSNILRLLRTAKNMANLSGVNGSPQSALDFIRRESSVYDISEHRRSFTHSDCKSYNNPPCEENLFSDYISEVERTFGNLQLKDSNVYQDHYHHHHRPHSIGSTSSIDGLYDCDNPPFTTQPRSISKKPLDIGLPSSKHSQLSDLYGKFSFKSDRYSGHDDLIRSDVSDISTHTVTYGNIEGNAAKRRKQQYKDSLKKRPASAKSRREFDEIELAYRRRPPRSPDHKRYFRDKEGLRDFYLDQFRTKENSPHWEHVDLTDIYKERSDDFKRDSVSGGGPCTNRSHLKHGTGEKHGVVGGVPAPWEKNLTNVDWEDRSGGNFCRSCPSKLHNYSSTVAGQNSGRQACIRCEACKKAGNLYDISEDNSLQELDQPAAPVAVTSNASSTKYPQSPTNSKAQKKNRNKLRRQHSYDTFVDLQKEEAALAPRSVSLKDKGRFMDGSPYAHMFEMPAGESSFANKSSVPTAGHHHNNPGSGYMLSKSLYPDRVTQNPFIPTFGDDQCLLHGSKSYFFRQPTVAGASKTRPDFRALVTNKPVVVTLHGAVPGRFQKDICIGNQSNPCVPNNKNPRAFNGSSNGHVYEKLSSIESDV

Turning to `Cc1ccc(-n2cnc(Cn3ccnc3C)c2)cc1Cl.Cl.Cl` [Example 87, 1H-Imidazole, 1-[[1-(3-Chloro-4-methylphenyl)-1H-imidazol-4-yl]methyl]-2-methyl-, Hydrochloride (1:2)], the melting point was 242 to 243 °C. This compound came in with an IC50 in data set [1] of 17 nM.
The like results for `Cc1nccn1Cc1cn(-c2ccc(Cl)cc2)cn1.Cl.Cl` [Example 48, 1H-Imidazole, 1-[[1-(4-Chlorophenyl)-1H-imidazol-4-yl]methyl]-2-methyl-, Hydrochloride (1:2)] were, in that order, 243 to 244 °C and 61 nM.
The like results for `CC(F)(F)c1cc(-n2cnc(Cn3ccnc3)c2)ccc1F.Cl.Cl` [Example 150, 1-[3-(1,1-Difluoro-ethyl)-4-fluoro-phenyl]-4-imidazol-1-ylmethyl-1H-imidazole Hydrochloride (1:2)] were, in that order, > 200 °C (dec.) and 13.5 nM.
The like results for `OCc1nccn1Cc1cn(-c2ccc(Cl)c(Cl)c2)cn1` [Example 109, {1-[1-(3,4-Dichloro-phenyl)-1H-imidazol-4-yl-methyl]-1H-imidazol-2-yl}-methanol] were, in that order, 202 to 203 °C and 85 nM.
As for `CC(C)c1nccn1Cc1cn(-c2ccc(Cl)c(Cl)c2)cn1.Cl.Cl` [Example 4, 1H-Imidazole, 1-[[1-(3,4-Dichlorophenyl)-1H-imidazol-4-yl]methyl]-2-(1-methylethyl)-, Hydrochloride (1:2)], the melting point was 236 to 238 °C (dec.). The compound also yielded a 50% inhibitory concentration (IC50) in data set [1] of 17 nM.
On the same counts, the results for `Cc1nccn1Cc1cn(-c2cccc(C(C)(C)C)c2)cn1.Cl.Cl` [Example 183, 1H-Imidazole, 1-[[1-(3-tert-Butylphenyl)-1H-imidazol-4-yl]methyl]-2-methyl-, Hydrochloride (1:2)] are > 200 °C (dec.) and 52 nM.
On the same counts, the results for `Cc1nccn1Cc1cn(-c2cccc(C(F)F)c2)cn1.Cl.Cl` [Example 194, 1H-Imidazole, 1-[[1-[3-(Difluoromethyl)phenyl]-1H-imidazol-4-yl]methyl]-2-methyl-, Hydrochloride (1:2)] are 195 to 196 °C and 79 nM.
On the same counts, the results for `Cc1nccn1Cc1cn(-c2ccc(F)c(C(C)(F)F)c2)cn1.Cl.Cl` [Example 149, 1H-Imidazole, 1-[[1-[3-(1,1-Difluoroethyl)-4-fluorophenyl]-1H-imidazol-4-yl]methyl]-2-methyl-, Hydrochloride (1:2)] are > 200 °C (dec.) and 8.2 nM.
For the compound `CCc1nccn1Cc1cn(-c2ccc(Cl)c(C)c2)cn1.Cl.Cl` [Example 10, 1H-Imidazole, 1-[[1-(4-Chloro-3-methylphenyl)-1H-imidazol-4-yl]methyl]-2-ethyl-, Hydrochloride (1:2)], the melting point lay in the range of 186 to 187 °C. The compound also gave a half-inhibitory concentration (IC50) in data set [1] of 4 nM.
The like results for `CCc1cccc(-n2cnc(Cn3ccnc3C)c2)c1.Cl.Cl` [Example 159, 1H-Imidazole, 1-[[1-(3-Ethylphenyl)-1H-imidazol-4-yl]methyl]-2-methyl-, Hydrochloride (1:2)] were, in that order, > 200 °C (dec.) and 14 nM.
